One data set has as its target Aβ40 (Homo sapiens, UniProt P05067). The data set can be described thus: Inhibition of Aβ40 self-aggregation (thioflavin T fluorescence, 2% HFIP). As to conditions: for inhibition at 100 µM: read-out: Aβ40 Aggregation Inhibition % at 100 μM.
In data set [1] the target is T1, human recombinant monoamine oxidase A (Homo sapiens, UniProt P21397).
T1 construct: purchased Sigma Aldrich; host or cells: baculovirus infected insect cells (microsomes)
T1 sequence (P21397 1-527): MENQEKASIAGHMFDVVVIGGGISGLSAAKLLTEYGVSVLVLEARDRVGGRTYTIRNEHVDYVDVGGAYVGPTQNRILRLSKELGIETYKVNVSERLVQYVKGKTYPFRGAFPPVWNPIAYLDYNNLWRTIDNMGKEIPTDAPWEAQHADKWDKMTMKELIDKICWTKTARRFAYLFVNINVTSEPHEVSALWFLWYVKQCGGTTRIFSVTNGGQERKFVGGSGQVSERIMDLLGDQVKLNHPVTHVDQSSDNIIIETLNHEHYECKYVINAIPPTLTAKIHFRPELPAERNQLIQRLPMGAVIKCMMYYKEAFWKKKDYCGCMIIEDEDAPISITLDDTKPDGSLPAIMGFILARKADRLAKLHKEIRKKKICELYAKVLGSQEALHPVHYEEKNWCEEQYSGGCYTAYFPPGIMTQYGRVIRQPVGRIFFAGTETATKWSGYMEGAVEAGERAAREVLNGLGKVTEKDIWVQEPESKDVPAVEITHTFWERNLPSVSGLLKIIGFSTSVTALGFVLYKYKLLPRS
Description: Inhibition of monoamine oxidase A (kynuramine). It counts as biochemical. As to conditions: for inhibition at 10 µM: read-out: hMAO A % Inhib. at 10 μM.
Description: (§1) All assays were performed in 96-well plates (Greiner Bio-One, Kremsmünster, Austria) using an Infinite M1000 Pro plate reader (Tecan, Cernusco s.N., Italy). Inhibition data were obtained as mean ± SD (for single concentration points) or mean ± SEM from three independent experiments (for IC50s), using Prism (GraphPad Prism version 5.00 for Windows, GraphPad Software, San Diego, CA, USA).
(§2) Inhibition of human recombinant monoamine oxidases A (250 U/mg) and B (59 U/mg; microsomes from baculovirus infected insect cells; Sigma Aldrich) was determined as already described [48], measuring the fluorescence of 4-hydroxyquinoline produced by the oxidative deamination of substrate kynuramine.

For data set [2], the target named is T2, human recombinant monoamine oxidase B (Homo sapiens, UniProt P27338).
T2 construct: purchased Sigma Aldrich; host or cells: baculovirus infected insect cells (microsomes)
T2 sequence (P27338 1-520): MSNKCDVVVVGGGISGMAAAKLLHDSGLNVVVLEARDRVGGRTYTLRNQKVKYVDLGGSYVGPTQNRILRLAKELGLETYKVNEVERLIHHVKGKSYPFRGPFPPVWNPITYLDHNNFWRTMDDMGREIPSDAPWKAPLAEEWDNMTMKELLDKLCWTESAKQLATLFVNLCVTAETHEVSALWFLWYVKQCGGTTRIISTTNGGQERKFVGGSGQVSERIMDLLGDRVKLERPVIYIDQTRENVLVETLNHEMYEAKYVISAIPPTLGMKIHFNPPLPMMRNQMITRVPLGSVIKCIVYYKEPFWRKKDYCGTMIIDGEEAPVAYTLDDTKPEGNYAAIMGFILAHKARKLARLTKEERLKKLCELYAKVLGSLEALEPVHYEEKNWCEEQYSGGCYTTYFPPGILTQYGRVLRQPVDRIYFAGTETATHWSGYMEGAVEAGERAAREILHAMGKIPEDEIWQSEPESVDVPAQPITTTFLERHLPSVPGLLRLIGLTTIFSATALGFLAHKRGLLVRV
The data set can be described thus: Inhibition of monoamine oxidase B (kynuramine). It counts as biochemical. As to conditions: for IC50: read-out: hMAO B IC50.
Description: as §1, §2

The next data set concerns the target T3, tau protein (Homo sapiens, UniProt P10636).
T3 construct: inclusions bodies (IBs) formed by tau full-length protein in bacteria; expressed in transfected cells; host or cells: Escherichia coli BL21 (DE3), plasmids pTARA and pRKT42
The data set can be described thus: Tau aggregation inhibition assay in bacterial cells (thioflavin S fluorescence). Format: cell-based, Escherichia coli BL21 (DE3). As to conditions: for inhibition at 10 µM: cell-based assay. The source says:
The deposition of aggregates of hyperphosphorylated tau protein constitutes the intracellular neurofibrillary tangles, a major histological evidence of AD. The role of tau hyperphosphorylation and aggregation in AD has established both of them as a target for therapeutic intervention, although only N,N,N′,N′-tetramethyl-10H-phenothiazine-3,7-diaminium (TRX0237, leucomethyl-thioninium), the reduced form of methylene blue dye, acting as an inhibitor of tau aggregation, has reached the clinical phase III [26]. In recent years, some of us developed an efficient cell-based assay of tau aggregation, a simple and inexpensive method that provides a straightforward assay to evaluate the putative anti-aggregation capacity of small molecules. This method relies on the use of bacteria overexpressing amyloid-prone proteins to monitor the amyloid aggregation, thus constituting a physiologically relevant model. In particular, it exploits amyloid properties of the inclusions bodies (IBs) formed by tau full-length protein in bacteria stained by thioflavin S (ThS), a specific amyloid dye, to address the bacterial amyloid aggregation and the effect of anti-amyloid compounds in this polymerization process.
Escherichia coli competent cells BL21 (DE3) were transformed with pTARA containing the RNA-polymerase gen of T7 phage (T7RP) under the control of the promoter PBAD and pRKT42 vector encoding four repeats of tau protein in two inserts. Because of the addition of the initiation codon ATG in front of gene, the over-expressed protein contains an additional methionine residue at its N terminus. Tau anti-aggregating activities of the target compounds were assessed in E. coli cells, as previously described. M9 minimal medium (10 mL) containing 0.5% of glucose, 100 μg/mL of ampicillin and 12.5 μg/mL of chloramphenicol was inoculated with a colony of BL21 (DE3) cells bearing the plasmids. To fresh M9 minimal medium containing 0.5% of glucose, 50 μg/mL of ampicillin, 12.5 μg/mL of chloramphenicol, and 250 µM of ThS, the volume of overnight culture necessary to get a 1:500 dilution was added. The cultures were grown at 37 °C and 250 rpm overnight until cell density reached OD600 = 0.6. A volume of 980 μL of the cultures was transferred into 1.5 mL Eppendorf tubes that contained 10 μL of a solution of the target compound in DMSO and 10 μL of arabinose at 25%, leading to a final inhibitor concentration of 10 μM. The resulting cultures were grown at 37 °C and 1400 rpm with a Thermomixer (Eppendorf, Hamburg, Germany) overnight. The same amount of DMSO without the target compound was added to the sample as a negative control (maximal amount of tau), whereas non-induced samples (in the absence of arabinose) were prepared as positive controls (absence of tau), and to assess the potential intrinsic toxicity of the target compounds. In addition, the absorbance at 600 nm of these samples was assessed to confirm the correct bacterial growth, discarding potential intrinsic toxicity of compounds. To determine the IC50 values, the same protocol was followed but only modifying the initial concentration of compounds. In order to use different final concentrations of compound, we performed a dilutions banc from a stock solution of 100 mM in […].
ThS fluorescence and absorbance were tracked using a DTX 800 plate reader Multimode Detector equipped with a Multimode Analysis Software (Beckman-Coulter, Indianapolis, IN, USA). Filters of 430/35 and 485/20 nm were used for the excitation and emission wavelengths, respectively. 535/25 nm filters were also used for the absorbance determination. It should be stressed that ThS fluorescence normalization was carried out considering as 100% the ThS fluorescence of the bacterial cells expressing tau in the absence of compounds and 0% the ThS fluorescence of the bacterial cells non-expressing tau.

In the next data set the target is T4, human recombinant AChE (Homo sapiens, UniProt P22303).
T4 construct: purchased Sigma Aldrich
T4 sequence (P22303 32-614): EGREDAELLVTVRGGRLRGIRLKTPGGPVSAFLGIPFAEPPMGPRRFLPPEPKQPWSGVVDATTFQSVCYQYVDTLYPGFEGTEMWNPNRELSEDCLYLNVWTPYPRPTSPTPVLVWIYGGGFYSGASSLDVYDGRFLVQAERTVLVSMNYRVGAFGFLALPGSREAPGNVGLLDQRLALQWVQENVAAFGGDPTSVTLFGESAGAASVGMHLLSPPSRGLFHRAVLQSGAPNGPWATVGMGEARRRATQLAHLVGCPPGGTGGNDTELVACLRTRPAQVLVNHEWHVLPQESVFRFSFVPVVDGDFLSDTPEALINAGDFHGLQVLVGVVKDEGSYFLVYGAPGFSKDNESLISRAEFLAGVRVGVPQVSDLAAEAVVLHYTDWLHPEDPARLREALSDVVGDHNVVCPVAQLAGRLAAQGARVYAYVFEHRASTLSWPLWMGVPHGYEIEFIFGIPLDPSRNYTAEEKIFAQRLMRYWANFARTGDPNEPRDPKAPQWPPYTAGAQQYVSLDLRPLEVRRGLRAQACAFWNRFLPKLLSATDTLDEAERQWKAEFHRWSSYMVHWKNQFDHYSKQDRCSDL
The data set can be described thus: biochemical. As to conditions: for inhibition at 10 µM: read-out: hAChE % Inhib. at 10 μM.

What is called melting point is the temperature of the solid-liquid transition. As usually defined, the IC50 is the concentration needed to halve the response being measured.

T3 sequence (P10636 other isoform, or with tags, fused parts or gaps): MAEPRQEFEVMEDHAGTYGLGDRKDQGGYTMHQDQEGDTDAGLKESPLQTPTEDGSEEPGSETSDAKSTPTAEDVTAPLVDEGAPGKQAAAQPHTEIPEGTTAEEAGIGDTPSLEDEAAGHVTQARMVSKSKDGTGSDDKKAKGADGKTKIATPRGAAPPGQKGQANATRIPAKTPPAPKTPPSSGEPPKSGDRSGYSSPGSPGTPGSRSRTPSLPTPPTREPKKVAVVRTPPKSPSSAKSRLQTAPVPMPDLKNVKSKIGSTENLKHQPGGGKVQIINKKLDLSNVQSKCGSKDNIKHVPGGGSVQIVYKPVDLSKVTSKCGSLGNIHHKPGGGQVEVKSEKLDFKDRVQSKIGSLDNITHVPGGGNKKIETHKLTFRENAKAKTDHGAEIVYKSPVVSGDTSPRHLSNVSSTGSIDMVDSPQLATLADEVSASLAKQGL
Aβ40, sequence (P05067 672-711 limits assumed): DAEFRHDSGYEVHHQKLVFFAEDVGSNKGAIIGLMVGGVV
Description for Aβ40: All the newly prepared compounds were tested in a routine in vitro assay of inhibition of Aβ40 self-aggregation [25].
as §1
Assay of aggregation of Aβ40 (EzBiolab, Carmel, IN, USA) was performed as described [25], using 2% of 1,1,1,3,3,3-hexafluoro-2-propanol as aggregation enhancer and spectrofluorimetric detection of thioflavin T fluorescence as the probe of amyloid aggregation.
Description for human recombinant AChE: as §1

`CC(C)c1ccc(NN=C2NC(=O)c3ccccc32)cc1` [Compound 38, 3-(2-(4-Isopropylphenyl)hydrazineylidene)isoindolin-1-one]: the melting point lay within 186 to 187 °C. Also, the inhibition at 100 µM on Aβ40 turned out to be 49 ± 5%.
On the same counts, the results for `O=C1C(=Cc2ccc(O)cc2)Nc2ccccc21` [Compound 27, 2-(4-Hydroxybenzylidene)indolin-3-one] are greater than 250 °C and 69 ± 1%.
For the compound `CN1C(=O)C(=NNc2ccc(OCc3ccccc3)cc2)c2ccccc21` [Compound 9, 3-(2-(4-(Benzyloxy)phenyl)hydrazineylidene)-1-methylindolin-2-one], the inhibition at 10 µM came to 15 ± 3% in data set [1], 20 ± 2% against tau protein and 48 ± 2% on human recombinant AChE. For the same compound, the values for the IC50 (against Aβ40; in data set [2]) were 0.95 ± 0.04 µM and 4 ± 0.4 µM, respectively.
For `N/N=C1\C(=O)Nc2ccc([N+](=O)[O-])cc21` [Compound 3, (Z)-3-Hydrazineylidene-5-nitroindolin-2-one], the melting point was in the range of 217 to 219 °C. Moreover, on Aβ40, the inhibition at 100 µM was determined as 11 ± 3%.
Turning to `O=C1C(c2c(O)nc3ccccc3c2O)=Nc2ccccc21` [Compound 43, 2-(2,4-Dihydroxyquinolin-3-yl)-3H-indol-3-one], the melting point was in the range of 90 to 92 °C. Besides, the inhibition at 100 µM at Aβ40 is 17 ± 3%.
For `COc1ccc2c(c1)C(=NNC(=O)c1ccccc1)C(=O)N2` [Compound 26, N′-(5-Methoxy-2-oxoindolin-3-ylidene)benzhydrazide], in that order: greater than 250 °C and 12 ± 5%.
Consider `O=C1Nc2ccccc2C1=NNc1ccccc1` [Compound 5, isatin 3-phenylhydrazone], for which the “selectivity for MAO A over MAO B” value in data set [1] (MAO A over MAO B) came out at 7 fold. The IC50 in data set [1] (read-out: hMAO A IC50) was 0.52 ± 0.04 µM; against Aβ40, 22 ± 2 µM; in data set [2] it was 3.6 ± 0.7 µM; at tau protein, 4.6 ± 0.7 µM. In addition, the inhibition at 10 µM on human recombinant AChE was found to be 37 ± 1%.
Consider `O=C1Nc2ccccc2C1=NNc1ccc(OCc2ccccc2)cc1` [Compound 8, 3-(2-(4-(Benzyloxy)phenyl)hydrazineylidene)indolin-2-one], for which the inhibition at 10 µM in data set [1] is 8 ± 3%; in data set [2] (read-out: hMAO B % Inhib. at 10 μM), 36 ± 4%; against tau protein, 35 ± 2%. In addition, at Aβ40, the inhibition at 100 µM was found to be 69 ± 3%. Besides, the IC50 at human recombinant AChE (read-out: hAChE IC50) was found to be 3.9 ± 0.5 µM.

Values taken from publication PMC7731220, “Pharmacophore Modeling and 3D-QSAR Study of Indole and Isatin Derivatives as Antiamyloidogenic Agents Targeting Alzheimer’s Disease” (Molecules, 2020).
